These results are taken from ChEMBL document CHEMBL1139938, “Syntheses and antibacterial activity of phendioxy substituted cyclic enediynes” (2007).

Structures are written as SMILES. Converted amounts (≈) assume the structure as drawn. The source made the active and inactive calls. Some results are limits rather than exact numbers.

Broadly, the MIC is the smallest concentration in the dilution series that meets the test's criterion for growth inhibition. High values mean weaker potency, low ones greater potency.

Test [1] concerns Pseudomonas aeruginosa. Nature of the test: Antibacterial activity against Pseudomonas aeruginosa ATCC 11775. Format: functional.
Test [2] concerns Escherichia coli. Nature of the test: Antibacterial activity against Escherichia coli ATCC 25668. Type of test: functional.
In test [3] the test system is Staphylococcus aureus. Nature of the test: Antibacterial activity against Staphylococcus aureus isolate. Format: functional.
Test [4] concerns Salmonella typhimurium. As to the kind of experiment: Antibacterial activity against Salmonella Typhimurium isolate. Type of test: functional, Salmonella enterica subsp. enterica serovar Typhimurium. As to conditions: Salmonella enterica.
Test [5] has as its system Pseudomonas aeruginosa. As to the kind of experiment: Antibacterial activity against Pseudomonas aeruginosa ATCC 11775 upto 512 ug/mL. Type of test: functional, organism-based.
The subject of test [6] is Staphylococcus aureus. As to the kind of experiment: Antibacterial activity against Staphylococcus aureus isolate upto 512 ug/mL. Type of test: functional, organism-based.
Test [7] concerns Salmonella typhimurium. As to the kind of experiment: Antibacterial activity against Salmonella Typhimurium isolate upto 512 ug/mL. Type of test: functional, organism-based. As to conditions: Salmonella enterica subsp. enterica serovar Typhimurium.
Test [8] has as its system Escherichia coli. Nature of the test: Antibacterial activity against Escherichia coli ATCC 25668 upto 512 ug/mL. Format: functional, organism-based.

Take `CN(C)[C@@H]1C(O)=C(C(N)=O)C(=O)[C@@]2(O)C(O)=C3C(=O)c4c(O)cccc4[C@@](C)(O)[C@H]3C[C@@H]12` [TETRACYCLINE]: the MIC stood at 1 µg/mL (≈ 2.25 µM) in the test with Pseudomonas aeruginosa [1], 2 µg/mL (≈ 4.5 µM) in the test with Escherichia coli [2], 2 µg/mL (≈ 4.5 µM) in the test on Staphylococcus aureus [3] and 0.5 µg/mL (≈ 1.13 µM) with Salmonella typhimurium [4].
On to `Cc1ccc(/N=C/c2ccc3cc2OCC#C/C=C\C#CCO3)cc1`, for which the MIC was 256 µg/mL (≈ 782 µM) against Escherichia coli [2] and 128 µg/mL (≈ 391 µM) against Salmonella typhimurium [4]. Further, the outcome in the test on Pseudomonas aeruginosa [5] and in the test on Staphylococcus aureus [6] was inactive.
For `C#CCOc1cccc(OCC#C)c1`, the MIC against Pseudomonas aeruginosa [1], against Escherichia coli [2], in the test with Staphylococcus aureus [3] and against Salmonella typhimurium [4] was greater than 1000 µg/mL throughout.
On to `Brc1ccc(NCc2ccc3cc2OCC#C/C=C\C#CCO3)cc1`, for which, in the test with Escherichia coli [2], the MIC stood at 128 µg/mL (≈ 325 µM). In addition, the result in the test with Pseudomonas aeruginosa [5], in the test on Staphylococcus aureus [6] and with Salmonella typhimurium [7] was inactive.
As for `C1#CCOc2ccc(CNc3ccccc3)c(c2)OCC#C/C=C\1`, the MIC was 16 µg/mL (≈ 50.7 µM) with Pseudomonas aeruginosa [1], 4 µg/mL (≈ 12.7 µM) with Escherichia coli [2], 8 µg/mL (≈ 25.4 µM) in the test with Staphylococcus aureus [3] and 16 µg/mL (≈ 50.7 µM) with Salmonella typhimurium [4].
Consider `O=Cc1ccc2cc1OCC#C/C=C\C#CCO2`, for which the MIC stood at 256 µg/mL (≈ 1070 µM) in the test on Escherichia coli [2], 8 µg/mL (≈ 33.6 µM) with Staphylococcus aureus [3] and 128 µg/mL (≈ 537 µM) in the test with Salmonella typhimurium [4]. The outcome with Pseudomonas aeruginosa [5] was inactive.
Consider `C#CCOc1ccc(C=O)c(OCC#C)c1`, for which the MIC against Pseudomonas aeruginosa [1], in the test with Escherichia coli [2], with Staphylococcus aureus [3] and against Salmonella typhimurium [4] was greater than 1000 µg/mL in each case.
`OCc1ccc2cc1OCC#C/C=C\C#CCO2`: the MIC in the test with Escherichia coli [2] is 8 µg/mL (≈ 33.3 µM); with Staphylococcus aureus [3], 4 µg/mL (≈ 16.6 µM); against Salmonella typhimurium [4], 128 µg/mL (≈ 533 µM). Besides, the result in the test on Pseudomonas aeruginosa [5] was inactive.
With `C1#CCOc2ccc(/C=N/c3ccccc3)c(c2)OCC#C/C=C\1`, the MIC against Pseudomonas aeruginosa [1] worked out at 128 µg/mL (≈ 408 µM); in the test on Escherichia coli [2], 128 µg/mL (≈ 408 µM); in the test on Staphylococcus aureus [3], 128 µg/mL (≈ 408 µM); against Salmonella typhimurium [4], 64 µg/mL (≈ 204 µM).
As to `C1#CCOc2cccc(c2)OCC#C/C=C\1`, the MIC stood at 4 µg/mL (≈ 19 µM) in the test with Escherichia coli [2] and 8 µg/mL (≈ 38.1 µM) against Salmonella typhimurium [4]. For the same molecule, the result in the test with Pseudomonas aeruginosa [5] and in the test on Staphylococcus aureus [6] was inactive.
Regarding `Cc1ccc(NCc2ccc3cc2OCC#C/C=C\C#CCO3)cc1`, the MIC was 32 µg/mL (≈ 97.1 µM) with Pseudomonas aeruginosa [1], 4 µg/mL (≈ 12.1 µM) in the test with Escherichia coli [2], 16 µg/mL (≈ 48.6 µM) against Staphylococcus aureus [3] and 128 µg/mL (≈ 389 µM) against Salmonella typhimurium [4].
Molecule `Brc1ccc(/N=C/c2ccc3cc2OCC#C/C=C\C#CCO3)cc1` had an MIC with Salmonella typhimurium [4] of 128 µg/mL (≈ 326 µM). The outcome in the test on Pseudomonas aeruginosa [5], with Escherichia coli [8] and with Staphylococcus aureus [6] was inactive.
Take `Clc1ccc(NCc2ccc3cc2OCC#C/C=C\C#CCO3)cc1`: the MIC against Escherichia coli [2] worked out at 64 µg/mL (≈ 183 µM); in the test on Salmonella typhimurium [4], 512 µg/mL (≈ 1460 µM). Also, the outcome in the test on Pseudomonas aeruginosa [5] and with Staphylococcus aureus [6] was inactive.
